Measured values reported in patent publication US11793794B2, “Combination therapy for treating or preventing depression or other mood diseases” (YALE UNIVERSITY, priority 2018, dated 2023).

Tested on: patients with major depression
Assay: double-blind placebo-controlled crossover study: rapamycin or placebo 2 hours before ketamine infusion, depression severity (MADRS)
Format: in vivo, human
Protocol: The present studies address a longstanding question in the field—whether the antidepressant effects of ketamine depend upon its capacity to stimulate a key protein known as the mechanistic target for rapamycin (mTOR). If that is indeed the case, ketamine's effects should be reduced when mTOR is inhibited. To test this hypothesis, a double-blind placebo-controlled crossover study was conducted under fully randomized conditions, whereby one set of patients was treated with the mTOR inhibitor rapamycin, an FDA approved drug that is currently used to treat certain immune disorders and cancers.
In this design, symptomatic antidepressant-treated patients with major depression who have a history of non-response to at least one prior antidepressant trial were recruited and studied over 3 years. Participants completed two ketamine infusion test days separated by at least two weeks. On each ketamine test day, patients were randomized to take a “loading dose” of rapamycin or placebo 2 hours before receiving an intravenous infusion of ketamine. The primary outcome measure of the study was the severity of depression, as measured by the Montgomery Åsberg Depression Rating Scale (MADRS). […]
Depression severity was assessed at baseline, and at 4 h, 24 h, 1 week, and 2 weeks post treatment. […]

For `CNC1(c2ccccc2Cl)CCCCC1=O` (racemic) [ketamine, (RS)-2-(2-Chlorophenyl)-2-(methylamino)cyclohexanone], the time to relapse (placebo prior to 0.5 mg/kg iv ketamine, MADRS) was at most 2 weeks and the “duration of benefits produced by ketamine” value (single ketamine infusion without rapamycin) was “a few days”.
